This is an account of results in patent publication US20240298636A1, “ANTIMICROBIAL AGENTS AND FILMS MADE THEREFROM” (YISSUM RESEARCH DEVELOPMENT COMPANY OF THE HEBREW …, priority 2021, published 2024).

The nature of this data set: QCM-D analysis of peptide adsorption and Cu binding. Conditions: for loaded mass/area of the peptide: 1.5 mg/mL in Tris buffer pH 8.5, after washing, Sauerbrey equation, 5th overtones. The format is physicochemical. The procedure: Quartz Crystal Microbalance with Dissipation (QCM-D) Analysis: The peptides' adsorption and the metal-binding capabilities were studied using QCM-D (Q-sense, Biolin Scientific). The measurements were performed in a flow module E1 system with SiO2 sensors with a fundamental resonant frequency of 5 MHz (Qsense). The sensors were cleaned according to the supplier instructions. The experiments were performed under flow-through conditions using a digital peristaltic pump (IsmaTec Peristaltic Pump, IDEX). The peptide (1.5 mg/mL), control peptide (1.5 mg/mL), and CuCl2 (0.8 mg/mL) were dissolved in a filtered Tris buffer solution (pH=8.5, 10 mM). The solutions were injected circularly into the sensor crystal chamber at a rate of 0.1 mL/min. The peptide solution flowed for -4 h, the control peptide for −80 min, and the CuCl2 solution for -2 h. Between and after the coatings, the sensor was washed with the same Tris buffer solution. The adsorbed mass was calculated according to the Sauerbrey equation using the 5th overtones.

For “NH2-(Phe)2-(His)6-OH [reference compound]”, the “loaded mass/area of the peptide” value was about 12 ng/cm^2.
In the case of NH2-DOPA-(Phe)2-(His)6-OH [peptide], the “loaded mass/area of the peptide” value is listed as about 96 ng/cm^2. The “loaded mass/area of Cu bound to the peptide layer” value (Cu(II) solution (CuCl2 0.8 mg/mL) after washing with the buffer) was about 9 ng/cm^2. Further, where the note is “from loaded mass/area values”, the “ratio of Cu ions per each peptide molecule” value is about 2.
